Like-named read-outs stand apart in the source and are kept apart here. Numbered stars: 1 amine (or outer) side, 2 acyl side, 3 side chain; on linkers, the order of the positions; unused ones are H or OH. Square brackets hold non-standard residues; d marks the D form. Side chains are listed from the residue outwards. Peptide text beside a SMILES is read from it. * marks the point of attachment. γGlu = O=C(O)[C@H](CCC(=O)[*:2])N[*:1]; Palmitoyl = CCCCCCCCCCCCCCCC(=O)*; αMeF = C[C@](N)(Cc1ccccc1)C(=O)O; αMeK = C[C@](N)(CCCCN)C(=O)O; Lauroyl = CCCCCCCCCCCC(=O)*; αMeS = C[C@](N)(CO)C(=O)O; AEEA = NCCOCCOCC(=O)O; Aib = CC(C)(N)C(=O)O
Tests used:
Format in all cases: cell-based
[1] = target: T1, human glucagon receptor (GCGR) (Homo sapiens, UniProt P47871); experiment: cAMP assay, human GCGR cells
T1 construct: expressed in transfected cells
In short: (§1)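 Peptide-stimulated cAMP measured by two-step HTRF after a 30 min room-temperature incubation with receptor-expressing cells (hGLP-1R, hGIPR at 1×10^5 cells/ml; hGCGR at 2×10^5 cells/ml). Duplicate dilutions; EC50 from 4-parameter logistic fit of % Delta F.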

[2] = target: T2, human GLP-1 receptor (GLP-1R) (Homo sapiens, UniProt P43220); experiment: cAMP assay, human GLP-1R cells
T2 construct: expressed in transfected cells
In short: as §1

[3] = target: T3, human glucose-dependent insulinotropic peptide receptor (GIPR) (Homo sapiens, UniProt P48546); experiment: cAMP assay, human GIPR cells
T3 construct: expressed in transfected cells
T3 sequence (P48546 22-466): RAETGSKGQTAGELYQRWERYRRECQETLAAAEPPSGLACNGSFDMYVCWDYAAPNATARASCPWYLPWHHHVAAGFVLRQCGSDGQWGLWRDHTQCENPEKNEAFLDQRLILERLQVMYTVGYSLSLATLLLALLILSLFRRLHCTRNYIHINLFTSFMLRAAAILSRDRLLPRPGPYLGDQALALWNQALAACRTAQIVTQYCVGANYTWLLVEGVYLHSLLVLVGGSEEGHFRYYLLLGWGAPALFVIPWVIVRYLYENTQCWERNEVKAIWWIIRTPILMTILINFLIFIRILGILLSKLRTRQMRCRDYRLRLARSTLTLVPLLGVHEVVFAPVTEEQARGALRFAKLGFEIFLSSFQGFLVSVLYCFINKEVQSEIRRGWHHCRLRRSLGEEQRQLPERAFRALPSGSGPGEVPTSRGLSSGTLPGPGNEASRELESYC
In short: as §1

[4] = cAMP assay, first determination (n1), read-out: Primary assay EC50 Gluc-R (n1)
[5] = cAMP assay, second determination (n2), read-out: Primary assay EC50 Gluc-R (n2)
[6] = cAMP assay, first determination (n1), read-out: Primary assay EC50 GLP-1R n1
[7] = cAMP assay, second determination (n2), read-out: Primary assay EC50 GLP-1R n2
[8] = mean of n1 and n2, read-out: Mean pM GLP-1R
[9] = cAMP assay, first determination (n1), read-out: Primary assay EC50 GIP-R (n1)
[10] = cAMP assay, second determination (n2), read-out: Primary assay EC50 GIP-R (n2)
[11] = tris-lipidated peptides, second replicate, read-out: Primary assay EC50 Gluc-R (n2)
[12] = tris-lipidated peptides, mean of n1 and n2, read-out: Primary assay EC50 Mean pM GLP-1R
[13] = tris-lipidated peptides, replicate n1, read-out: Primary assay EC50 GLP-1R n1
[14] = tris-lipidated peptides, replicate n2, read-out: Primary assay EC50 GLP-1R n2

T1 sequence (P47871 26-477): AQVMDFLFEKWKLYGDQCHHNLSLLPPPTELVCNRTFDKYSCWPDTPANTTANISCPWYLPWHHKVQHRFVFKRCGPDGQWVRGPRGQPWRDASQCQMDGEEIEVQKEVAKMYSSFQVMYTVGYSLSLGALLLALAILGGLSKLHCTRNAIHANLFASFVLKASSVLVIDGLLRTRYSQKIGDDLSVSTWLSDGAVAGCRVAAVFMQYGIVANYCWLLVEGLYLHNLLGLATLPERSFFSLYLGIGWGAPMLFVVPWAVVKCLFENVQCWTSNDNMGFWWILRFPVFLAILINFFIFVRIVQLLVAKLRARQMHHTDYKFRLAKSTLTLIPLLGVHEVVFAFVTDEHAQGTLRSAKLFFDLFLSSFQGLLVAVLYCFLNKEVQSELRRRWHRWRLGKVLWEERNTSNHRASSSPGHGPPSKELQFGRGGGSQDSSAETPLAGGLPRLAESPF
T2 sequence (P43220 24-463): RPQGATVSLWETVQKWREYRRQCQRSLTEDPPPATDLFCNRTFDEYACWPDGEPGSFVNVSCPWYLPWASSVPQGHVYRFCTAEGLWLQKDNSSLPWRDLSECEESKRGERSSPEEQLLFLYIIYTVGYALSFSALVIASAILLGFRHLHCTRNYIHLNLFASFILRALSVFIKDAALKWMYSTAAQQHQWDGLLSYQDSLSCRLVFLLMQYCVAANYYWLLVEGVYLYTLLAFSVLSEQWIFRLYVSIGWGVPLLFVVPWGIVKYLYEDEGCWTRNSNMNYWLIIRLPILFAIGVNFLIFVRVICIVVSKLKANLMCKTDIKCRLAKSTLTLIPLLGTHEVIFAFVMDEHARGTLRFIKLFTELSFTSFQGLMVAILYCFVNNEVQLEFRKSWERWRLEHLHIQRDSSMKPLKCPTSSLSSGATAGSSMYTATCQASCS

EC50 [1, 4] [nM]	EC50 [1, 5] [nM]	EC50 [2, 6] [pM]	EC50 [2, 7] [pM]	EC50 [2, 8] [pM]	EC50 [3, 9] [nM]	EC50 [3, 10] [nM]	EC50 [1, 11] [nM]	EC50 [2, 12] [pM]	EC50 [2, 13] [pM]	EC50 [2, 14] [pM]	EC50 ([3]; tris-lipidated peptides, second replicate, read-out: Primary assay EC50 GIP-R (n2)) [nM]	EC50 ([3]; tris-lipidated peptides, first replicate, read-out: Primary assay EC50 GIP-R (n1)) [nM]	SMILES	EC50 ([1]; Primary assay EC50 Gluc-R (n1), cAMP assay, first determination (n1)) [nM]	EC50 ([1]; read-out: Primary assay EC50 Gluc-R (n2), cAMP assay, second determination (n2)) [nM]	EC50 ([3]; Primary assay EC50 GIP-R (n1), cAMP assay, first determination (n1)) [nM]	EC50 ([3]; read-out: Primary assay EC50 GIP-R (n2), cAMP assay, second determination (n2)) [nM]
≥ 27	≥ 27	28	22	25.4	≥ 27	≥ 27	–	–	–	–	–	–	CCCCCCCCCCCCCCCCCC(=O)NCCCCCC(=O)NCCCCCC(=O)NCCCC[C@H](NC(=O)[C@H](C)NC(=O)[C@H](C)NC(=O)[C@H](CCC(=O)O)NC(=O)CNC(=O)[C@H](CCC(=O)O)NC(=O)[C@H](CC(C)C)NC(=O)[C@](C)(Cc1ccccc1)NC(=O)[C@H](CO)NC(=O)[C@](C)(CO)NC(=O)[C@@H](NC(=O)[C@H](CC(=O)O)NC(=O)[C@H](CO)NC(=O)[C@@H](NC(=O)[C@](C)(Cc1ccccc1)NC(=O)[C@H](CO)NC(=O)CNC(=O)[C@H](CCC(=O)O)NC(=O)C(C)(C)NC(=O)[C@@H](N)Cc1c[nH]cn1)[C@@H](C)O)C(C)C)C(=O)N[C@@H](CCC(=O)O)C(=O)N[C@@](C)(Cc1ccccc1)C(=O)N[C@H](C(=O)N[C@@H](C)C(=O)N[C@@](C)(Cc1ccccc1)C(=O)N[C@H](C(=O)N[C@H](C(=O)N[C@@](C)(CCCCN)C(=O)NCC(=O)NCC(N)=O)C(C)C)C(C)C)[C@@H](C)CC [compound 150]	–	–	–	–
–	–	–	–	–	–	–	19.9	212	165	259	19.9	–	CCCCCCCCCCCC(=O)N[C@@H](CCC(=O)NCCOCCOCC(=O)NCCOCCOCC(=O)NCCCC[C@H](NC(=O)[C@H](Cc1ccc(O)cc1)NC(=O)[C@H](CO)NC(=O)[C@](C)(CO)NC(=O)[C@@H](NC(=O)[C@H](CC(=O)O)NC(=O)[C@H](CO)NC(=O)[C@@H](NC(=O)[C@](C)(Cc1ccccc1)NC(=O)[C@H](CO)NC(=O)CNC(=O)[C@H](CCC(=O)O)NC(=O)C(C)(C)NC(=O)[C@@H](N)Cc1c[nH]cn1)[C@@H](C)O)C(C)C)C(=O)N[C@@H](CCC(=O)O)C(=O)NCC(=O)N[C@@H](CCC(=O)O)C(=O)N[C@@H](C)C(=O)N[C@@H](C)C(=O)N[C@@](C)(CCCCN)C(=O)N[C@@H](CCCCNC(=O)COCCOCCNC(=O)COCCOCCNC(=O)CC[C@H](NC(=O)CCCCCCCCCCC)C(=O)O)C(=O)N[C@@H](Cc1ccccc1)C(=O)N[C@H](C(=O)N[C@@H](C)C(=O)N[C@@H](Cc1ccccc1)C(=O)N[C@@H](CCCCNC(=O)COCCOCCNC(=O)COCCOCCNC(=O)CC[C@H](NC(=O)CCCCCCCCCCC)C(=O)O)C(=O)N[C@H](C(=O)N[C@@H](CCC(=O)O)C(=O)NCC(=O)NCC(N)=O)C(C)C)[C@@H](C)CC)C(=O)O [compound 486] (H-H[Aib]EGS[αMeF]TSDV[αMeS]SYK([AEEA-AEEA-γGlu-Lauroyl])EGEAA[αMeK]K([AEEA-AEEA-γGlu-Lauroyl])FIAFK([AEEA-AEEA-γGlu-Lauroyl])VEGG-NH2; N-terminus assumed)	–	–	–	–
–	–	–	–	–	–	–	19.5	114	62.9	165	–	19.5	CCCCCCCCCCCC(=O)N[C@@H](CCC(=O)NCCOCCOCC(=O)NCCOCCOCC(=O)NCCCC[C@H](NC(=O)[C@H](CCC(=O)O)NC(=O)CNC(=O)[C@H](CCC(=O)O)NC(=O)[C@H](CCCCNC(=O)COCCOCCNC(=O)COCCOCCNC(=O)CC[C@H](NC(=O)CCCCCCCCCCC)C(=O)O)NC(=O)[C@H](Cc1ccc(O)cc1)NC(=O)[C@H](CO)NC(=O)[C@](C)(CO)NC(=O)[C@@H](NC(=O)[C@H](CC(=O)O)NC(=O)[C@H](CO)NC(=O)[C@@H](NC(=O)[C@](C)(Cc1ccccc1)NC(=O)[C@H](CO)NC(=O)CNC(=O)[C@H](CCC(=O)O)NC(=O)C(C)(C)NC(=O)[C@@H](N)Cc1c[nH]cn1)[C@@H](C)O)C(C)C)C(=O)N[C@@H](C)C(=O)N[C@@](C)(CCCCN)C(=O)N[C@@H](CCC(=O)O)C(=O)N[C@@H](Cc1ccccc1)C(=O)N[C@H](C(=O)N[C@@H](CCCCNC(=O)COCCOCCNC(=O)COCCOCCNC(=O)CC[C@H](NC(=O)CCCCCCCCCCC)C(=O)O)C(=O)N[C@@H](Cc1ccccc1)C(=O)N[C@H](C(=O)N[C@H](C(=O)N[C@@H](CCC(=O)O)C(=O)NCC(=O)NCC(N)=O)C(C)C)C(C)C)[C@@H](C)CC)C(=O)O [compound 453] (H-H[Aib]EGS[αMeF]TSDV[αMeS]SYK([AEEA-AEEA-γGlu-Lauroyl])EGEK([AEEA-AEEA-γGlu-Lauroyl])A[αMeK]EFIK([AEEA-AEEA-γGlu-Lauroyl])FVVEGG-NH2)	–	–	–	–

The next lines start with the molecule.

SMILES	EC50 [1, 4] [nM]	EC50 [1, 5] [nM]	EC50 [2, 6] [pM]	EC50 [2, 7] [pM]	EC50 [2, 8] [pM]	EC50 [3, 9] [nM]	EC50 [3, 10] [nM]	EC50 [1, 11] [nM]	EC50 [2, 12] [pM]	EC50 [2, 13] [pM]	EC50 [2, 14] [pM]	EC50 ([3]; tris-lipidated peptides, second replicate, read-out: Primary assay EC50 GIP-R (n2)) [nM]	EC50 ([3]; tris-lipidated peptides, first replicate, read-out: Primary assay EC50 GIP-R (n1)) [nM]	EC50 ([1]; Primary assay EC50 Gluc-R (n1), cAMP assay, first determination (n1)) [nM]	EC50 ([1]; read-out: Primary assay EC50 Gluc-R (n2), cAMP assay, second determination (n2)) [nM]	EC50 ([3]; Primary assay EC50 GIP-R (n1), cAMP assay, first determination (n1)) [nM]	EC50 ([3]; read-out: Primary assay EC50 GIP-R (n2), cAMP assay, second determination (n2)) [nM]
CCCCCCCCCCCCCCCC(=O)N[C@@H](CCC(=O)NCCCC[C@H](NC(=O)CNC(=O)[C@H](CCC(=O)O)NC(=O)C(C)(C)NC(=O)[C@@H](N)Cc1c[nH]cn1)C(=O)N[C@@](C)(Cc1ccccc1)C(=O)N[C@H](C(=O)N[C@@H](CO)C(=O)N[C@@H](CC(=O)O)C(=O)N[C@H](C(=O)N[C@@](C)(CO)C(=O)N[C@@H](CO)C(=O)N[C@@](C)(Cc1ccccc1)C(=O)N[C@@H](CC(C)C)C(=O)N[C@@H](CCC(=O)O)C(=O)NCC(=O)N[C@@H](CCC(=O)O)C(=O)N[C@@H](C)C(=O)N[C@@H](C)C(=O)N[C@@](C)(CCCCN)C(=O)N[C@@H](CCC(=O)O)C(=O)N[C@@](C)(Cc1ccccc1)C(=O)N[C@H](C(=O)N[C@@H](C)C(=O)N[C@@](C)(Cc1ccccc1)C(=O)N[C@H](C(=O)N[C@H](C(=O)N[C@@](C)(CCCCN)C(=O)NCC(=O)NCC(N)=O)C(C)C)C(C)C)[C@@H](C)CC)C(C)C)[C@@H](C)O)C(=O)O [compound 95] (H-H[Aib]EGK([γGlu-Palmitoyl])[αMeF]TSDV[αMeS]S[αMeF]LEGEAA[αMeK]E[αMeF]IA[αMeF]VV[αMeK]GG-NH2; N-terminus assumed)	≥ 28	≥ 28	260	190	224	≥ 28	≥ 28	–	–	–	–	–	–	–	–	–	–
CC[C@H](C)[C@H](NC(=O)[C@](C)(Cc1ccccc1)NC(=O)[C@H](CCC(=O)O)NC(=O)[C@H](CCCCNC(=O)COCCOCCNC(=O)COCCOCCNC(=O)COCCOCCNC(=O)CCCCCCCCCCCOc1ccc(C(=O)O)cc1)NC(=O)[C@H](C)NC(=O)[C@H](C)NC(=O)[C@H](CCC(=O)O)NC(=O)CNC(=O)[C@H](CCC(=O)O)NC(=O)[C@H](CC(C)C)NC(=O)[C@](C)(Cc1ccccc1)NC(=O)[C@H](CO)NC(=O)[C@](C)(CO)NC(=O)[C@@H](NC(=O)[C@H](CC(=O)O)NC(=O)[C@H](CO)NC(=O)[C@@H](NC(=O)[C@](C)(Cc1ccccc1)NC(=O)[C@H](CO)NC(=O)CNC(=O)[C@H](CCC(=O)O)NC(=O)C(C)(C)NC(=O)[C@@H](N)Cc1c[nH]cn1)[C@@H](C)O)C(C)C)C(=O)N[C@@H](C)C(=O)N[C@@](C)(Cc1ccccc1)C(=O)N[C@H](C(=O)N[C@H](C(=O)N[C@@](C)(CCCCN)C(=O)NCC(=O)NCC(N)=O)C(C)C)C(C)C [compound 145]	–	–	27	15	21	–	–	–	–	–	–	–	–	≥ 25	≥ 25	≥ 25	≥ 25
CCCCCCCCCCCCCCCC(=O)N[C@@H](CCC(=O)NCCCC[C@H](NC(=O)CNC(=O)[C@](C)(CCCCN)NC(=O)[C@@H](NC(=O)[C@@H](NC(=O)[C@](C)(Cc1ccccc1)NC(=O)[C@H](C)NC(=O)[C@@H](NC(=O)[C@](C)(Cc1ccccc1)NC(=O)[C@H](CCC(=O)O)NC(=O)[C@](C)(CCCCN)NC(=O)[C@H](C)NC(=O)[C@H](C)NC(=O)[C@H](CCC(=O)O)NC(=O)CNC(=O)[C@H](CCC(=O)O)NC(=O)[C@H](CC(C)C)NC(=O)[C@](C)(Cc1ccccc1)NC(=O)[C@H](CO)NC(=O)[C@](C)(CO)NC(=O)[C@@H](NC(=O)[C@H](CC(=O)O)NC(=O)[C@H](CO)NC(=O)[C@@H](NC(=O)[C@](C)(Cc1ccccc1)NC(=O)[C@H](CO)NC(=O)CNC(=O)[C@H](CCC(=O)O)NC(=O)C(C)(C)NC(=O)[C@@H](N)Cc1c[nH]cn1)[C@@H](C)O)C(C)C)[C@@H](C)CC)C(C)C)C(C)C)C(N)=O)C(=O)O [compound 70] (H-H[Aib]EGS[αMeF]TSDV[αMeS]S[αMeF]LEGEAA[αMeK]E[αMeF]IA[αMeF]VV[αMeK]GK([γGlu-Palmitoyl])-NH2; N-terminus assumed)	≥ 27	≥ 27	74	92	83	≥ 27	≥ 27	–	–	–	–	–	–	–	–	–	–

— patent US10414811B2, “Protease-resistant lipidated GLP-1 analogs” (MEDIMMUNE LIMITED, priority 2015, dated 2019)
